Test results: paper PMC12916490 (Molecular Psychiatry, 2025)

The molecules below were run against T1, hα2A (Homo sapiens, UniProt P08913) (assay: Radioligand binding, hα2A receptor ([3H]rauwolscine)).
T1 construct: expressed in transfected cells; host or cells: Chinese hamster lung cells (membrane preparation)
T1 sequence (P08913 1-465): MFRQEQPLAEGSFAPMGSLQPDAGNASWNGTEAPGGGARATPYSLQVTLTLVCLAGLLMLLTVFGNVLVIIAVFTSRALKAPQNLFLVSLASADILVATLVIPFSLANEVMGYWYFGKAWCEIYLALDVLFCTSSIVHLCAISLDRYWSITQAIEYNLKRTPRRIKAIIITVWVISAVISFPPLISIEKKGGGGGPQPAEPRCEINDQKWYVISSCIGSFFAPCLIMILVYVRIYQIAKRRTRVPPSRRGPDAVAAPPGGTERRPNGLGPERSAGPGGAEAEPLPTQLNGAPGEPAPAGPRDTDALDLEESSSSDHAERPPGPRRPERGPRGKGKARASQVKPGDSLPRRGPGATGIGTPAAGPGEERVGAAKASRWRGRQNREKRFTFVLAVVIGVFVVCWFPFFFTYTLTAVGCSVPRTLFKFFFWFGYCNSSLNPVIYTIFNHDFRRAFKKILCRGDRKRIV
Procedure: Binding affinities at human monoamine receptors and transporters were assessed as previously reported. A detailed description of the methodology is provided in the Supplementary information.
Data analysis was performed with Prism software (version 10.1.2, GraphPad Software, Boston, MA, USA). The IC50 values from the radioligand binding assays were determined by nonlinear regression, using three independent concentration-response curves fitted to a one-site model. The Cheng-Prusoff equation was used to calculate Kᵢ values for the competing ligands. EC50 values were determined by applying nonlinear regression to concentration-response curves. Bias factors (β) were calculated based on the relative intrinsic activity approach. More detailed information can be found in the Supplementary information. Mean values for total number of HTR, change in body temperature from pre to post session (Δ°C), and total distance traveled (cm) for each drug dose were compared (p < 0.05) via Welch’s ANOVA with Dunnett’s T3 post test, comparing all doses to respective vehicle controls (0 mg/kg). Welch’s ANOVA with Dunnett’s T3 post test was also used to compare drug concentrations, but the data were compared to DOM in this case. Dose–response relationships for HTR and locomotor activities were plotted using bell-shaped curve fits, while temperature change data were plotted using four-parameter non-linear regression curve fits. The ascending phase of the HTR curve for each drug was used to determine ED50 potency values from four parameter non-linear regression fits. For combined DOM and DOAM administration, the plasma, brain tissue, and brain dialysate drug concentrations were compared using paired t-tests (p < 0.05). Ratios were compared using Holm-Sidak’s post hoc test following a repeated-measures one-way ANOVA (F (1.709, 6.835) = 70.80; p < 0.0001).
3.1 Assessment of receptor and transporter binding affinities
Membrane preparations were prepared from cells transfected with the respective target. The membrane preparations were then incubated with selective radioligands at concentrations equal to the corresponding Kd and displacement of the ligand by the drugs was measured. The difference between total binding and nonspecific binding (determined in the presence of selective competitors) was defined as specific binding of the radioligand to the target receptor. The following transfected cell lines were used for the binding assays: HEK 293 cells (h5-HT1A, h5-HT2A, h5-HT2B, h5-HT2C, and hD2 receptors, hDAT, hNET, and hSERT), Chinese hamster ovary cells (hα 1A receptor), and Chinese hamster lung cells (hα 2A receptor).
3.1.1 Membrane preparations for receptor and transporter binding
For producing membrane preparations, transfected cells were harvested with trypsin/EDTA, washed with ice-cold phosphate buffered saline, and then pelleted by centrifugation (210 × g for 5 min at 4 °C). The pellets were frozen and stored at -80 °C until use. Frozen pellets were resuspended in 20 m L (receptor binding) or 400 m L (transporter binding) buffer (20 mM HEPES -NaOH, 10 mM EDTA, pH 7.4), and homogenized at 1,100 × g for 20 s (receptor binding) or 560 × g for 15 s (transporter binding); the homogenates were then centrifuged at 48,000 × g for 30 min at 4 °C. For receptor binding assays, the supernatants were discarded and the pellets were resuspended in 20 mL buffer (20 mM HEPES-NaOH, 0.1 mM EDTA, pH 7.4) and homogenized at 1 ,100 × g for 20 s. Centrifugation and discarding of the supernatant were repeated once, and the final pellet was then resuspended in buffer and homogenized.
3.1.2 Serotonin 5-HT1A and 5-HT2A receptor binding
Competitive binding at the h5-HT1A and h5-HT2A receptor was determined using 0.90 nM [ 3H]8-hydroxy-2-(di-n-propylamine)tetralin ([ 3H]8-OH-DPAT; h5-HT1A receptor agonist) and 0.40 nM [3H]ketanserin (h5-HT2 receptor antagonist) as radioligands. The density and affinity of [ 3H]8-OH-DPAT […]
`CCc1cc(OC)c(CC(C)N)cc1OC` (stereo not drawn) [DOET, 4-ethyl-2,5-dimethoxyamphetamine] showed a Ki of over 4970 nM.
`CCCCc1cc(OC)c(CC(C)N)cc1OC` (stereo not drawn) [DOBU, 4-butyl-2,5-dimethoxyamphetamine] was tested, and the Ki was 1710 nM.
`CCCc1cc(OC)c(CC(C)N)cc1OC.Cl` (stereo not drawn) [DOPR, 4-propyl-2,5-dimethoxyamphetamine hydrochloride] showed a Ki of 513 nM.
With `COc1ccc(OC)c(CC(C)N)c1.Cl` (stereo not drawn) [2,5-DMA, 2,5-Dimethoxyamphetamine hydrochloride] the Ki was 4390 nM.
For `COc1cc(CC(C)N)c(OC)cc1C` (stereo not drawn) [DOM, 4-methyl-2,5-dimethoxyamphetamine], the Ki was over 4970 nM.
In the case of `CCCCCc1cc(OC)c(CC(C)N)cc1OC` (stereo not drawn) [DOAM, 4-amyl-2,5-dimethoxyamphetamine], the Ki is reported as 2310 nM.
